# According to the NIST ThermoML archive (doi:10.1016/j.fluid.2007.01.042):
# Numbers after ± are expanded uncertainties.
# Settings: Liquid, Ebulliometric method (Recirculating still)
smiles,measurement,setting,value
Cc1ccccc1Cl [2-chlorotoluene],vapor or sublimation pressure,398.81 K,40 ± 0.05 kPa
same,vapor or sublimation pressure,408.41 K,53.33 ± 0.06 kPa
same,vapor or sublimation pressure,416.25 K,66.66 ± 0.08 kPa
same,vapor or sublimation pressure,422.91 K,79.99 ± 0.09 kPa
same,vapor or sublimation pressure,428.76 K,93.32 ± 0.11 kPa
CCOC(C)=O [ethyl acetate],vapor or sublimation pressure,324.44 K,40 ± 0.04 kPa
same,vapor or sublimation pressure,331.9 K,53.33 ± 0.05 kPa
same,vapor or sublimation pressure,337.99 K,66.66 ± 0.06 kPa
same,vapor or sublimation pressure,343.18 K,79.99 ± 0.07 kPa
same,vapor or sublimation pressure,347.7 K,93.32 ± 0.08 kPa
"Cc1cccc(C)c1 [1,3-dimethylbenzene]",vapor or sublimation pressure,380.51 K,40 ± 0.09 kPa
same,vapor or sublimation pressure,389.66 K,53.33 ± 0.11 kPa
same,vapor or sublimation pressure,397.13 K,66.66 ± 0.14 kPa
same,vapor or sublimation pressure,403.51 K,79.99 ± 0.17 kPa
same,vapor or sublimation pressure,409.09 K,93.32 ± 0.19 kPa
C1CCCCC1 [cyclohexane],vapor or sublimation pressure,325.65 K,40 ± 0.04 kPa
same,vapor or sublimation pressure,333.77 K,53.33 ± 0.04 kPa
same,vapor or sublimation pressure,340.43 K,66.66 ± 0.05 kPa
same,vapor or sublimation pressure,346.11 K,79.99 ± 0.06 kPa
same,vapor or sublimation pressure,351.12 K,93.32 ± 0.06 kPa
c1ccccc1 [benzene],vapor or sublimation pressure,325.6 K,40 ± 0.04 kPa
same,vapor or sublimation pressure,333.56 K,53.33 ± 0.04 kPa
same,vapor or sublimation pressure,340.06 K,66.66 ± 0.05 kPa
same,vapor or sublimation pressure,345.61 K,79.99 ± 0.06 kPa
same,vapor or sublimation pressure,350.5 K,93.32 ± 0.06 kPa
CCCCCCC [heptane],vapor or sublimation pressure,342.77 K,40 ± 0.05 kPa
same,vapor or sublimation pressure,351.08 K,53.33 ± 0.07 kPa
same,vapor or sublimation pressure,357.85 K,66.66 ± 0.08 kPa
same,vapor or sublimation pressure,363.64 K,79.99 ± 0.1 kPa
same,vapor or sublimation pressure,368.7 K,93.32 ± 0.11 kPa
ClC(Cl)(Cl)Cl [tetrachloromethane],vapor or sublimation pressure,322.04 K,40 ± 0.04 kPa
same,vapor or sublimation pressure,330.08 K,53.33 ± 0.04 kPa
same,vapor or sublimation pressure,336.65 K,66.66 ± 0.05 kPa
same,vapor or sublimation pressure,342.21 K,79.99 ± 0.06 kPa
same,vapor or sublimation pressure,347.09 K,93.32 ± 0.06 kPa
Cc1ccc(Cl)cc1 [4-chlorotoluene],vapor or sublimation pressure,401.71 K,40 ± 0.09 kPa
same,vapor or sublimation pressure,411.34 K,53.33 ± 0.11 kPa
same,vapor or sublimation pressure,419.2 K,66.66 ± 0.14 kPa
same,vapor or sublimation pressure,425.9 K,79.99 ± 0.17 kPa
same,vapor or sublimation pressure,431.77 K,93.32 ± 0.19 kPa
CCc1ccccc1 [ethylbenzene],vapor or sublimation pressure,377.54 K,40 ± 0.09 kPa
same,vapor or sublimation pressure,386.69 K,53.33 ± 0.11 kPa
same,vapor or sublimation pressure,394.14 K,66.66 ± 0.14 kPa
same,vapor or sublimation pressure,400.51 K,79.99 ± 0.17 kPa
same,vapor or sublimation pressure,406.12 K,93.32 ± 0.19 kPa
CC1CCCCC1 [methylcyclohexane],vapor or sublimation pressure,344.18 K,40 ± 0.09 kPa
same,vapor or sublimation pressure,352.8 K,53.33 ± 0.11 kPa
same,vapor or sublimation pressure,359.85 K,66.66 ± 0.14 kPa
same,vapor or sublimation pressure,365.87 K,79.99 ± 0.17 kPa
same,vapor or sublimation pressure,371.15 K,93.32 ± 0.19 kPa
